Literature values, collected in US20020012702A1, “Controlled release anti-inflammatory oral formulation and a process for the preparation thereof” (Ajanta Pharma, Ltd., priority 2000, published 2002).

nimesulide plasma concentrations in the presence of food versus fasting conditions (administered in the presence of food, higher than under fasting conditions): 2 to 4 fold
half life (in vivo): 3 to 4 h
Compound: CS(=O)(=O)Nc1ccc([N+](=O)[O-])cc1Oc1ccccc1 [Nimesulide, 4-Nitro-2-phenoxymethane sulfonanilide]
